Measured values as given in patent US12612441B2, “Polypeptide and therapeutic uses thereof” (Vitalixir (Beijing) Co., Ltd, priority 2019, dated 2026).
“Also recorded” adds a separate entry of the source. Where no end group is shown, it is not given here. [ ]: non-standard residue; d: D form. Aib = CC(C)(N)C(=O)O

Tests used:
DIO obese mice = DIO obese mice 14-day body composition study (Example 14); format: in vivo, C57BL/6 mice; details: 1.5 nmole per animal s.c. once a day for 14 days; for lean mass: EchoMRI day 0 vs day 15, FIG. 13; for fat mass: EchoMRI day 0 vs day 15, vs PBS control, FIG. 13
Experimental: The DIO obese mice experiment was conducted by Shanghai WuXi AppTec New Drug Development Co., Ltd. The animal feeding was the same as described in Example 13. The animals were adapted to grasping and subcutaneous injection for 1 week at 40 weeks of age. The body weight and food intake were measured for 3 consecutive days before the experiment, and the fasting blood glucose of the animals was measured 1 day before the experiment. The animals with abnormal blood glucose were removed, and the remaining animals were grouped according to the random blood glucose and body weight of the animals (using body weight as the main reference indicator), with 6 animals per group and an average weight of 47 grams. During the experiment, each group of the animals was injected subcutaneously with PBS, or 1.5 nmole of compound 35 or compound 40 per animal once a day, and the dosing period was 14 days. An EchoMRI body composition analyzer was used to measure the body fat content of the animals before and after the experiment.

db/db mice [1] = assay: Blood glucose lowering in db/db mice (Example 8); format: in vivo; details: db/db male mice, 30 nmol/kg subcutaneous single dose, blood glucose 0-10 hours, AUC, vs PBS control; FIG. 2
Experimental: The feeding conditions of db/db mice were the same as described in Example 7. The db/db male mice (8 weeks old) were given one week to acclimate to the environmental conditions of the test facility. Baseline blood glucose and body weight were recorded for three days before the experiment (−3 day to −1 day). The mice were randomly grouped based on their three-day blood glucose and body weight, with 6 mice in each group. Mice were injected subcutaneously with PBS (5 ml/kg, control group) or the peptide compounds 31, 35, 38, 44 and 49 (30 nmol/kg) respectively at 10:00 in the morning. Blood was collected at 0 hour before drug administration, and 1, 2, 4, 6, 8, and 10 hours after administration, and blood glucose was measured using a OneTouch glucose meter (Johnson & Johnson) and test strips. Blood glucose curves were plotted with time as the abscissa and the blood glucose value at different time point as the ordinate, and the areas under the curve (AUC) were calculated.

db/db mice [2] = assay: Blood glucose lowering in db/db mice (Example 7); format: in vivo; details: db/db male mice, 30 nmol/kg subcutaneous single dose, blood glucose 0-10 hours, AUC, vs PBS control; FIG. 1
Experimental: db/db mice were housed in animal feeding rooms with strictly controlled environmental conditions. The temperature in the feeding room was maintained at 20-24° C. and the humidity was maintained at 40-70%. The temperature and humidity of the feeding room were monitored in real time by a temperature and humidity meter, and the temperature and humidity were recorded twice a day (once in the morning and once in the afternoon). The lighting in the animal feeding room was controlled by an electronic timing light-on system. The lights were turned on for 12 hours and turned off for 12 hours every day (on at 7:00 in the morning and off at 19:00 in the afternoon). During the experiment, the mice were individually housed in each cage, and toys were provided to the mice in each cage. During the experiment mice had free access to water. The db/db male mice (6 weeks old) were given one week to acclimate to the environmental conditions of the test facility. Baseline blood glucose and body weight were recorded for three days before the test (−3 day to −1 day). The mice were randomly grouped based on three-day blood glucose and body weight, with 6 mice in each group. The mice were injected subcutaneously with PBS (5 ml/kg, control group) or the peptide compounds 1, 2, 8, 16, 18, 19, 24, and 36 (30 nmol/kg) respectively at 10:00 am. Blood was collected at 0 hour before drug administration, and 1, 2, 4, 6, 8 and 10 hours after administration, and blood glucose was measured using a OneTouch glucose meter (Johnson & Johnson) and test strips. Blood glucose curves were plotted with time as the abscissa and the blood glucose value at different time point as the ordinate, the areas under the curve (AUC) were calculated, and the hypoglycemic effects and duration of time of the peptide compounds were compared.

Substance | lean mass (DIO obese mice) | fat mass (DIO obese mice) | blood glucose (db/db mice [1]) | blood glucose (db/db mice [2])
Y(aib)EGTFTSDLSIALEKEAVRLFIEWLLAGGPSSGAPPPK-NH2 (Y[Aib]EGTFTSDLSIALEKEAVRLFIEWLLAGGPSSGAPPPK-NH2; N-terminus assumed; SMILES CC[C@H](C)[C@H](NC(=O)[C@H](CO)NC(=O)[C@H](CC(C)C)NC(=O)[C@H](CC(=O)O)NC(=O)[C@H](CO)NC(=O)[C@@H](NC(=O)[C@H](Cc1ccccc1)NC(=O)[C@@H](NC(=O)CNC(=O)[C@H](CCC(=O)O)NC(=O)C(C)(C)NC(=O)[C@@H](N)Cc1ccc(O)cc1)[C@@H](C)O)[C@@H](C)O)C(=O)N[C@@H](C)C(=O)N[C@@H](CC(C)C)C(=O)N[C@@H](CCC(=O)O)C(=O)N[C@@H](CCCCN)C(=O)N[C@@H](CCC(=O)O)C(=O)N[C@@H](C)C(=O)N[C@H](C(=O)N[C@@H](CCCNC(=N)N)C(=O)N[C@@H](CC(C)C)C(=O)N[C@@H](Cc1ccccc1)C(=O)N[C@H](C(=O)N[C@@H](CCC(=O)O)C(=O)N[C@@H](Cc1c[nH]c2ccccc12)C(=O)N[C@@H](CC(C)C)C(=O)N[C@@H](CC(C)C)C(=O)N[C@@H](C)C(=O)NCC(=O)NCC(=O)N1CCC[C@H]1C(=O)N[C@@H](CO)C(=O)N[C@@H](CO)C(=O)NCC(=O)N[C@@H](C)C(=O)N1CCC[C@H]1C(=O)N1CCC[C@H]1C(=O)N1CCC[C@H]1C(=O)N[C@@H](CCCCN)C(N)=O)[C@@H](C)CC)C(C)C) [Compound 35] | basically unchanged | effectively reduced fat mass; also recorded: decreased markedly | significantly reduced the blood glucose | 
Y(aib)EGTFTSDLSI(aib)LEKEAVRLFIEWLLAGGPSSGAPPPC-NH2 (YXEGTFTSDLSIXLEKEAVRLFIEWLLAGGPSSGAPPPC; Aib; C-terminal amide; MOD_RES (2)..(2) X=aminoisobutyric aicd; MOD_RES (13)..(13) X=aminoisobutyric aicd; MOD_RES (39)..(39) AMIDATION, C-termianl amidation) [Compound 38] |  |  | significantly reduced the blood glucose | 
Y(aib)EGTFTSDLSIALEKEAVRLFIEWLLAGGPSSGAPPPS-NH2 (Y[Aib]EGTFTSDLSIALEKEAVRLFIEWLLAGGPSSGAPPPS-NH2; N-terminus assumed; SMILES CC[C@H](C)[C@H](NC(=O)[C@H](CO)NC(=O)[C@H](CC(C)C)NC(=O)[C@H](CC(=O)O)NC(=O)[C@H](CO)NC(=O)[C@@H](NC(=O)[C@H](Cc1ccccc1)NC(=O)[C@@H](NC(=O)CNC(=O)[C@H](CCC(=O)O)NC(=O)C(C)(C)NC(=O)[C@@H](N)Cc1ccc(O)cc1)[C@@H](C)O)[C@@H](C)O)C(=O)N[C@@H](C)C(=O)N[C@@H](CC(C)C)C(=O)N[C@@H](CCC(=O)O)C(=O)N[C@@H](CCCCN)C(=O)N[C@@H](CCC(=O)O)C(=O)N[C@@H](C)C(=O)N[C@H](C(=O)N[C@@H](CCCNC(=N)N)C(=O)N[C@@H](CC(C)C)C(=O)N[C@@H](Cc1ccccc1)C(=O)N[C@H](C(=O)N[C@@H](CCC(=O)O)C(=O)N[C@@H](Cc1c[nH]c2ccccc12)C(=O)N[C@@H](CC(C)C)C(=O)N[C@@H](CC(C)C)C(=O)N[C@@H](C)C(=O)NCC(=O)NCC(=O)N1CCC[C@H]1C(=O)N[C@@H](CO)C(=O)N[C@@H](CO)C(=O)NCC(=O)N[C@@H](C)C(=O)N1CCC[C@H]1C(=O)N1CCC[C@H]1C(=O)N1CCC[C@H]1C(=O)N[C@@H](CO)C(N)=O)[C@@H](C)CC)C(C)C) [Compound 31] |  |  | significantly reduced the blood glucose | 
Y(aib)EGTFTSDLSI(aib)LEKEAVRLFIEWLLAGGPSSGAPPPK-NH2 (YXEGTFTSDLSIXLEKEAVRLFIEWLLAGGPSSGAPPPK; Aib; C-terminal amide; MOD_RES (2)..(2) X=aminoisobutyric aicd; MOD_RES (13)..(13) X=aminoisobutyric aicd; MOD_RES (39)..(39) AMIDATION, C-termianl amidation) [Compound 40] | basically unchanged | effectively reduced fat mass; also recorded: decreased markedly |  | 
Y(aib)EGTFTSDLSIALEKEAVKLFIEWLLAGGPSSGAPPPK-NH2 (Y[Aib]EGTFTSDLSIALEKEAVKLFIEWLLAGGPSSGAPPPK-NH2; N-terminus assumed; SMILES CC[C@H](C)[C@H](NC(=O)[C@H](CO)NC(=O)[C@H](CC(C)C)NC(=O)[C@H](CC(=O)O)NC(=O)[C@H](CO)NC(=O)[C@@H](NC(=O)[C@H](Cc1ccccc1)NC(=O)[C@@H](NC(=O)CNC(=O)[C@H](CCC(=O)O)NC(=O)C(C)(C)NC(=O)[C@@H](N)Cc1ccc(O)cc1)[C@@H](C)O)[C@@H](C)O)C(=O)N[C@@H](C)C(=O)N[C@@H](CC(C)C)C(=O)N[C@@H](CCC(=O)O)C(=O)N[C@@H](CCCCN)C(=O)N[C@@H](CCC(=O)O)C(=O)N[C@@H](C)C(=O)N[C@H](C(=O)N[C@@H](CCCCN)C(=O)N[C@@H](CC(C)C)C(=O)N[C@@H](Cc1ccccc1)C(=O)N[C@H](C(=O)N[C@@H](CCC(=O)O)C(=O)N[C@@H](Cc1c[nH]c2ccccc12)C(=O)N[C@@H](CC(C)C)C(=O)N[C@@H](CC(C)C)C(=O)N[C@@H](C)C(=O)NCC(=O)NCC(=O)N1CCC[C@H]1C(=O)N[C@@H](CO)C(=O)N[C@@H](CO)C(=O)NCC(=O)N[C@@H](C)C(=O)N1CCC[C@H]1C(=O)N1CCC[C@H]1C(=O)N1CCC[C@H]1C(=O)N[C@@H](CCCCN)C(N)=O)[C@@H](C)CC)C(C)C) [Compound 44] |  |  | significantly reduced the blood glucose | 
Y(aib)EGTFTSDLSI(aib)LEKEAVKLFIEWLLAGGPSSGAPPPK-NH2 (YXEGTFTSDLSIXLEKEAVKLFIEWLLAGGPSSGAPPPK; Aib; C-terminal amide; …ON (2)..(2) X=aminoisobutyric aicd; …ON (13)..(13) X=aminoisobutyric aicd; …ON (39)..(39) AMIDATION, C-termianl amidation) [Compound 49] |  |  | significantly reduced the blood glucose | 
Y(aib)EGTFTSDYSIYLEKEAVRLFVNWLIAGGPSSGAPPPS-NH2 (Y[Aib]EGTFTSDYSIYLEKEAVRLFVNWLIAGGPSSGAPPPS-NH2; N-terminus assumed; SMILES CC[C@H](C)[C@H](NC(=O)[C@H](CC(C)C)NC(=O)[C@H](Cc1c[nH]c2ccccc12)NC(=O)[C@H](CC(N)=O)NC(=O)[C@@H](NC(=O)[C@H](Cc1ccccc1)NC(=O)[C@H](CC(C)C)NC(=O)[C@H](CCCNC(=N)N)NC(=O)[C@@H](NC(=O)[C@H](C)NC(=O)[C@H](CCC(=O)O)NC(=O)[C@H](CCCCN)NC(=O)[C@H](CCC(=O)O)NC(=O)[C@H](CC(C)C)NC(=O)[C@H](Cc1ccc(O)cc1)NC(=O)[C@@H](NC(=O)[C@H](CO)NC(=O)[C@H](Cc1ccc(O)cc1)NC(=O)[C@H](CC(=O)O)NC(=O)[C@H](CO)NC(=O)[C@@H](NC(=O)[C@H](Cc1ccccc1)NC(=O)[C@@H](NC(=O)CNC(=O)[C@H](CCC(=O)O)NC(=O)C(C)(C)NC(=O)[C@@H](N)Cc1ccc(O)cc1)[C@@H](C)O)[C@@H](C)O)[C@@H](C)CC)C(C)C)C(C)C)C(=O)N[C@@H](C)C(=O)NCC(=O)NCC(=O)N1CCC[C@H]1C(=O)N[C@@H](CO)C(=O)N[C@@H](CO)C(=O)NCC(=O)N[C@@H](C)C(=O)N1CCC[C@H]1C(=O)N1CCC[C@H]1C(=O)N1CCC[C@H]1C(=O)N[C@@H](CO)C(N)=O) [Compound 8] |  |  |  | significantly reduce blood glucose
